Values of other authors, collected in patent US20230181603A1, “METHODS OF TREATING CANCER WITH METABOLITE ADJUSTMENTS” (priority 2021, published 2023).

Experiments:
glial precursor cell = conditions: slice cultures

hyaluronidase inhibitor effective concentration (hyaluronidase): low-micromolar range
SMILES: CCCCCCCCCCCCCCCC(=O)OC[C@H](O)[C@H]1OC(=O)C(O)=C1O [Ascorbyl palmitate]
inhibition of glial precursor cell migration (glial precursor cell): potently inhibits
